Experimental findings from PMC3256212, “Mechanism and Function of Drosophila capa GPCR: A Desiccation Stress-Responsive Receptor with Functional Homology to Human NeuromedinU Receptor” (PLoS ONE, 2012) are described below.

Peptide text beside a SMILES is read from it.

The EC50 is the midpoint of the concentration-response curve.

The target in this experiment is T1, NMU receptor 2 (NMUR 2) (Homo sapiens, UniProt Q9GZQ4).
T1 construct: expressed in transfected cells; host or cells: Drosophila S2 cells (pMT/V5-His TOPO)
Description: [Ca2+]i (aequorin) in NMUR 2-transfected S2 cells. It counts as cell-based. The settings on record: NMUR 2- and apoaequorin-co-transfected S2 cells; N = 3 (Fig. 3D); read-out: EC50, [Ca2+]i via NMUR 2. The procedure: The capa peptides Drm-capa-1 (GANMGLYAFPRVamide), Drm-capa-2 (ASGLVAFPRVamide), Drm-PK-1 (TGPSASSGLWFGPRLamide), Drm-PK-2 (SVPFKPRLamide) and hugin gamma (hugg, pQLQSNGEPAYRVRTPRL-amide) were synthesised as C-terminally amidated peptides (Biomatik Corporation, Canada). Peptides were dissolved in distilled ACN/H2O to a concentration of 1 mM and then diluted to the required working concentration in Schneider's medium (Invitrogen Inc.). Human neuromedin U-25 was purchased from Sigma. Rabbit polyclonal antibody to porcine neuromedinU-8 was purchased from Progen biotechnik (Heidelberg, Germany). Rabbit capa precursor peptide used was described in [21] Rabbit anti-peptide antibody was raised against the capaR epitope (CQQGTNNRETRNSQM) by Genosphere Biotechnologies (Paris, France) and purified on a HiTrap NHS-activated HP column (Amersham Pharmacia Bio-tech; Buckinghamshire, UK) according to the manufacturer's instructions. Immunohistochemistry was carried out as described previously. Mouse anti-GFP primary antibody (Zymed) and the antiserum to neuromedinU-8 were all diluted 1∶1000 or, in the case of the pre-immune serum, the affinity-purified capaR antibody and the antiserum to the capa precursor peptide, 1∶500. Incubations in the primary antibodies were performed overnight. A FITC-conjugated affinity-purified goat anti-mouse antibody (Jackson Immunologicals) was used in a dilution of 1∶1,000 for visualization of the mouse monoclonal anti-GFP. A Texas red-conjugated affinity-purified goat anti-rabbit antibody (Jackson Immunologicals) was used at a dilution of 1∶1,000 for visualization of the rabbit capaR antiserum.
Drosophila S2 cells, cultured under standard conditions were transiently transfected with the apoaequorin ORF [21] and a receptor ORF construct, and expression induced using CuSO4. Transfected S2 cells were harvested and incubated with 2.5 µM coelenterazine in the dark at RT for 1–2 h as previously described. 25,000 cells were then placed in 135 µl Schneider's medium supplemented with 10% FCS in a well of a white polystyrene 96-well plate (Berthold Technologies). Bioluminescence recordings were carried out using a Mithras LB940 automated 96-well plate reader (Berthold Technologies) and MikroWin software. 15 µl of each of different peptides were applied to final concentrations as required. At the end of each recording samples were disrupted by the addition of 100 µl lysis solution, and the [Ca^2+] concentrations calculated as previously described. For assays in Ca^2+-free medium, transfected cells were collected and pelleted after incubation with coelenterazine. Cell pellets were re-suspended in Ca^2+-free Schneider's medium (Invitrogen Inc.) without FCS and collected by centrifugation. The washing and pelleting procedure was repeated once more. […]

T1 sequence (Q9GZQ4 whole entry): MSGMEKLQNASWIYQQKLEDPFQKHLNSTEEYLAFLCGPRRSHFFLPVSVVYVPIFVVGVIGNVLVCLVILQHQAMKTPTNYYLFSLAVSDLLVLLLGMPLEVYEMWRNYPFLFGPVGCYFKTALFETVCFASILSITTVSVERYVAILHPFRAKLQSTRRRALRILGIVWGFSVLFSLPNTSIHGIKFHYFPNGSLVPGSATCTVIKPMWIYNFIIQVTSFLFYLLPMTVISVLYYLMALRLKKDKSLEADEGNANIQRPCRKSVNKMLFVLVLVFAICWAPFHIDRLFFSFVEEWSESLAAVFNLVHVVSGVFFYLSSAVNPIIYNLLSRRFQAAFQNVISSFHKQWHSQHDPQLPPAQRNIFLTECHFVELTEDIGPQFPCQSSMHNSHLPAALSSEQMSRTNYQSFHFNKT

With `CC(C)C[C@H](NC(=O)[C@H](Cc1ccccc1)NC(=O)[C@H](Cc1ccc(O)cc1)NC(=O)CNC(=O)[C@H](CCCNC(=N)N)NC(=O)[C@H](CO)NC(=O)[C@H](CCC(N)=O)NC(=O)[C@H](CO)NC(=O)[C@H](C)NC(=O)[C@H](Cc1ccccc1)NC(=O)[C@@H]1CCCN1C(=O)[C@H](CO)NC(=O)[C@H](CCC(N)=O)NC(=O)[C@H](Cc1ccccc1)NC(=O)[C@H](CCC(=O)O)NC(=O)[C@H](CCC(=O)O)NC(=O)[C@H](CC(=O)O)NC(=O)[C@@H](NC(=O)[C@H](CCCNC(=N)N)NC(=O)[C@@H](N)Cc1ccccc1)C(C)C)C(=O)N[C@@H](Cc1ccccc1)C(=O)N[C@@H](CCCNC(=N)N)C(=O)N1CCC[C@H]1C(=O)N[C@@H](CCCNC(=N)N)C(=O)N[C@@H](CC(N)=O)C(N)=O` [NMU-25, reference compound] (H-FRVDEEFQSPFASQSRGYFLFRPRN-NH2), the EC50 is 0.91 nM.
